Assay results taken from patent US20130330396A1, “METHODS FOR THE TREATMENT OF THROAT DISCOMFORT” (INTERCONTINENTAL GREAT BRANDS LLC, priority 2009, published 2013).

What was measured:
[1] = Inventors' observations on bitterness and throat versus mouth cooling; details: in vivo
From the text: The present inventors have observed that N-ethyl-2,2-diisopropylbutanamide is a particularly effective for throat soothing. […] The structures of N-ethyl-2,2-diisopropylbutanamide and N,2,3-trimethyl-2-isopropylbutanamide, which differ only by two methylene (—CH2—) groups, are shown below.

[2] = Sensory evaluation of cooling agent-containing fondants (location, intensity, onset speed of cooling sensation); format: in vivo; details: for Long-lasting mouth cooling / Long-lasting throat cooling / Predominant mouth cooling / Predominant throat cooling: in fondant at 0.03, 0.06 and 0.09 weight percent, approx. 0.5 gram dissolved in the mouth, six evaluators
Procedure: The cooling agents N-ethyl-2,2-diisopropylbutanamide and N,2,3-trimethyl-2-isopropylbutanamide were evaluated in fondant at concentrations of 0.03, 0.06, and 0.09 weight percent. The fondant base consisted of 85 weight percent 6X fondant sugar and 15 weight percent deionized water.
Sensory evaluations of the cooling agent-containing fondants were conducted by six evaluators, who observed the location, intensity, and onset speed of cooling sensation as they tasted approximately 0.5 gram of fondant by allowing it to dissolve in the mouth.

[3] = menthol-containing lozenge; cited from earlier work

SMILES: CCNC(=O)C(CC)(C(C)C)C(C)C [Example 1, N-ethyl-2,2-diisopropylbutanamide]
- Location of cooling effect (throat versus mouth) [1]: selectivity for throat cooling over mouth cooling
- Long-lasting mouth cooling [2]: No
- Long-lasting throat cooling [2]: Yes
- Predominant mouth cooling [2]: No
- Predominant throat cooling [2]: Yes
- Throat cooling relative to N,2,3-trimethyl-2-isopropylbutanamide ([2]; when used in a candy system): superior and unexpected throat cooling

SMILES: CNC(=O)C(C)(C(C)C)C(C)C [Example 2, N,2,3-trimethyl-2-isopropylbutanamide]
- Location of cooling effect (throat versus mouth) [1]: primarily in the mouth rather than the throat
- Long-lasting mouth cooling [2]: No
- Long-lasting throat cooling [2]: No
- Predominant mouth cooling [2]: Yes
- Predominant throat cooling [2]: No

SMILES: CC1CCC(C(C)C)C(O)C1 (stereo not drawn) [menthol]
- Location of physiological cooling effect (throat versus mouth) [3]: felt primarily in the mouth rather than the throat
